The values below come from patent US12252481B2, “Anti-viral compounds” (Aligos Therapeutics, Inc., priority 2021, dated 2025).

Data set [1] has as its system B.1.1.7 lineage SARS-CoV-2. In words: microbe, parasite or virus in culture. It is filed as cell-based.
The subject of data set [2] is SARS-CoV-2-GHB-03021/2020. It is filed as cell-based. The following applies: read-out: VeroE6 + CP (EC50).
In a further data set the test system is Vero E6-eGFP cells. The following applies: read-out: VeroE6 + CP (CC50), absence of virus, numeric values.
The next data set concerns the target T1, SARS-Cov-2 3CLpro (Severe acute respiratory syndrome coronavirus 2, UniProt P0DTD1).
T1 construct: 3CLpro and HRV3C was added using a Multidrop Combi
Kind of data set: biochemical.

The next data set deals with T2, HRV3C (Human rhinovirus 14, UniProt P03303).
T2 construct: 3CLpro and HRV3C was added using a Multidrop Combi
T2 sequence (P03303 1538-1719): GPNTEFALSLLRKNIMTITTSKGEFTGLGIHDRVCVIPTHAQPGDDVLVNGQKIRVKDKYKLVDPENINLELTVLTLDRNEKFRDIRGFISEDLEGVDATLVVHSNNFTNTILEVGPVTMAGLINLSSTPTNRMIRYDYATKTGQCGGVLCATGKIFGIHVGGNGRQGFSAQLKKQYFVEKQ
In words: biochemical. On the set-up: species or system HRV.

Data set [3] deals with A549-dual_ACE2_TMPRSS2 cells. The following applies: read-out: A549-dual_ACE2_TMPRSS2 (CC50); assay medium without virus, MTS, numeric values.
Another data set deals with T3, human cathepsin L (Homo sapiens, UniProt P07711).
T3 construct: purchased R&D Systems
T3 sequence (P07711 114-333): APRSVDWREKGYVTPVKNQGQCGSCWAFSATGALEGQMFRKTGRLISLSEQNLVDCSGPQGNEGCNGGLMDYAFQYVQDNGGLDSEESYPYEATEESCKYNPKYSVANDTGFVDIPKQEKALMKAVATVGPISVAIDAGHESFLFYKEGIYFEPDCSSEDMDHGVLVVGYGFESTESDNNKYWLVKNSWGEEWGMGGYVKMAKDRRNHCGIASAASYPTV
Kind of data set: Cathepsin L assay (Z-FR-AMC fluorescence). The format is biochemical. As to conditions: 10 pM human cathepsin L, 30 mins preincubation, Z-FR-AMC 2 μM. In short, it runs like this:
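Human cathepsin L (10 pM) was preincubated 30 min with compound, then reactions were started with Z-FR-AMC substrate (2 μM final). AMC fluorescence (355/460 nm) was read every 2 min over 30 min. IC50 came from a four-parameter curve fit.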

Data set [4] concerns human beta-coronavirus OC43. Kind of data set: OC43 coronavirus antiviral assay in HeLa cells (cytopathic effect, cell-titer-glo). The following applies: 6 days at 33° C., read-out: EC50 (class). It is filed as cell-based. (In general: Damage to the host cells serves as the signal in cytopathic effect assays.)
Data set [5] is described as follows: in vitro. The following applies: human.
Data set [6] is described as follows: in vitro. As to conditions: human. The source holds these as a separate data set.
Data set [7] is described as follows: Cytotoxicity in HeLa cells without OC43 virus (cell-titer-glo). The following applies: human.
The subject of another data set is SARS-CoV-2. As to conditions: cited from earlier work.
In another data set the target is 3CLpro (Severe acute respiratory syndrome coronavirus 2, UniProt P0DTD1). The following applies: cited from earlier work.
The mark [8] stands for this setting: read-out: A549-dual_ACE2_TMPRSS2 (EC50).
Setting [9] is: 3CLpro, 30 mins preincubation, SAMDI-MS, read-out: SARS-Cov-2 IC50 (class).
Where [10] appears, read: HRV3C, 30 mins preincubation, SAMDI-MS, read-out: HRV IC50 (bound).
Where [11] appears, read: Severe acute respiratory syndrome coronavirus 2, 96 h; read-out: A549-dual_ACE2_TMPRSS2 (EC50).
[12] abbreviates: Betacoronavirus 1, OC43, HeLa, 144 h.

Where two headings read alike, the source gives them in different places.

Turning to `CC(C)(C)[C@H](NC(=O)C1CC1)C(=O)N1C[C@H]2[C@@H]([C@H]1C(=O)N[C@H](C#N)C[C@@H]1CCNC1=O)[C@H]1C=C[C@@H]2C1` [Example 21, (1R,2S,3S,6R,7S)—N-[(1S)-1-cyano-2-[(3S)-2-oxopyrrolidin-3-yl]ethyl]-4-[(2S)-2-(cyclopropylformamido)-3,3-dimethylbutanoyl]-4-azatricyclo[5.2.1.0^{2,6}]dec-8-ene-3-carboxamide], the EC50 in data set [1] (setting [8]), in data set [2] and in data set [4] was less than 100 nM each time. For the same compound, the CC50 is more than 50000 nM with Vero E6-eGFP cells, more than 10000 nM in data set [3] and more than 100000 nM with HeLa cells. The values for the IC50 at SARS-Cov-2 3CLpro (setting [9]), on HRV3C (setting [10]) and at human cathepsin L were less than 20 nM, more than 10000 nM and not below 10000 nM, respectively.
As to `CC(C)(C)[C@H](NC(=O)C(F)(F)F)C(=O)N1C[C@H]2[C@@H]([C@H]1C(=O)N[C@H](C#N)CC1Cc3ccccc3NC1=O)[C@H]1C=C[C@@H]2C1` (stereo partly drawn) [Example 29, (1S,3aR,4S,7R,7aS)—N-((1S)-1-cyano-2-(2-oxo-1,2,3,4-tetrahydroquinolin-3-yl)ethyl)-2-((S)-3,3-dimethyl-2-(2,2,2-trifluoroacetamido)butanoyl)-2,3,3a,4,7,7a-hexahydro-1H-4,7-methanoisoindole-1-carboxamide], the EC50 in [1] (setting [11]), in data set [2] and in [4] (setting [12]) was less than 100 nM each time. Moreover, the CC50 in the data set “in vitro [5]” and in the data set “in vitro [6]” was more than 10000 nM in each case. Further, the values for the IC50 at SARS-Cov-2 3CLpro (setting [9]), on HRV3C (setting [10]) and against human cathepsin L were less than 20 nM, more than 10000 nM and not below 10000 nM, respectively.
On to `[2H]C1=C[C@@H]2C[C@H]1[C@H]1[C@@H]2CN(C(=O)[C@@H](NC(=O)C(F)(F)C(F)(F)F)C(C)(C)C)[C@@H]1C(=O)N[C@H](C#N)C[C@@H]1CCNC1=O` [Compound 125], for which the IC50 (as a rule, the midpoint of a concentration-inhibition curve) on SARS-Cov-2 3CLpro (setting [9]) is less than 20 nM; on HRV3C (setting [10]), more than 500 nM. Besides, the EC50 – broadly, the concentration giving half of the maximal effect – in data set [4] (setting [12]) was less than 100 nM. In addition, the CC50 in the data set “in vitro [6]” is more than 100000 nM.
In the case of `CC(C)(C)[C@H](NC(=O)C(F)(F)F)C(=O)N1C[C@H]2[C@@H]([C@H]1C(=O)N[C@H](C#N)C[C@@H]1CCNC1=O)[C@H]1C=C[C@@H]2C12CC2` [Example 25, (1′R,2′S,3′S,6′R,7′S)—N-[(1S)-1-cyano-2-[(3S)-2-oxopyrrolidin-3-yl]ethyl]-4′-[(2S)-3,3-dimethyl-2-(2,2,2-trifluoroacetamido)butanoyl]-4′-azaspiro[cyclopropane-1,10′-tricyclo[5.2.1.0^{2,6}]decan]-8′-ene-3′-carboxamide], the EC50 was 100 to 1000 nM in data set [1] (Severe acute respiratory syndrome coronavirus 2, 96 h, read-out: A549-dual_ACE2_TMPRSS2 (EC50)); 100 to 1000 nM in data set [2]; less than 100 nM in data set [4] (setting [12]). The compound further registered a CC50 in the data set “in vitro [5]” of more than 10000 nM. Besides, the CC50 at 6 days in data set [7] was more than 100000 nM. For the same compound, the IC50 on SARS-Cov-2 3CLpro is less than 20 nM; against HRV3C, more than 10000 nM; against human cathepsin L, not below 10000 nM.
For `Cc1cn(C(C(=O)N2C[C@H]3[C@@H]([C@H]2C(=O)N[C@H](C#N)C[C@@H]2CCNC2=O)[C@H]2C=C[C@@H]3C2)C(C)(C)C)nn1` (stereo partly shown) [Compound 53], the EC50 in data set [1] (setting [11]) was in the range of 1000 to 10000 nM; in [2], 100 to 1000 nM; in data set [4] (setting [12]), 1000 to 10000 nM. Also, the CC50 in “in vitro [5]” and in the data set “in vitro [6]” was more than 10000 nM in each case. Moreover, the IC50 at SARS-Cov-2 3CLpro (setting [9]) is 20 to 200 nM; at HRV3C (setting [10]) it was more than 10000 nM; at human cathepsin L, not below 10000 nM.
As for `CC(C)(C)[C@H](NC(=O)C1(C(F)(F)F)CC1)C(=O)N1C[C@H]2[C@@H]([C@H]1C(=O)N[C@H](C#N)C[C@@H]1CCNC1=O)[C@H]1C=C[C@@H]2C1` [Example 20, (1R,2S,3S,6R,7S)—N-[(1S)-1-cyano-2-[(3S)-2-oxopyrrolidin-3-yl]ethyl]-4-[(2S)-3,3-dimethyl-2-{[1-(trifluoromethyl)cyclopropyl]formamido}butanoyl]-4-azatricyclo[5.2.1.0^{2,6}]dec-8-ene-3-carboxamide], the EC50 in [1] (setting [8]) was 100 to 1000 nM; in [2], less than 100 nM; in data set [4], less than 100 nM. The CC50 is more than 50000 nM in the data set on Vero E6-eGFP cells, more than 10000 nM in data set [3] and more than 100000 nM in the data set on HeLa cells. Besides, the IC50 at SARS-Cov-2 3CLpro (setting [9]) was less than 20 nM; on HRV3C (setting [10]), more than 10000 nM; against human cathepsin L it was not below 10000 nM.
In the case of `CC(C)(C)[C@H](NC(=O)C(F)(F)F)C(=O)N1C[C@@H]2[C@@H]3CC[C@@H](C3)[C@@H]2[C@H]1C(=O)N[C@H](C#N)C[C@@H]1CC2(CC2)NC1=O` [Example 15, (1S,3aR,4R,7S,7aS)-N-((S)-1-cyano-2-((R)-5-oxo-4-azaspiro[2.4]heptan-6-yl)ethyl)-2-((S)-3,3-dimethyl-2-(2,2,2-trifluoroacetamido)butanoyl)octahydro-1H-4,7-methanoisoindole-1-carboxamide], the EC50 in data set [1] (setting [11]) and in [2] was less than 100 nM each time. In the data set “in vitro [5]”, this compound showed a CC50 of more than 10000 nM. Besides, the IC50 is less than 20 nM at SARS-Cov-2 3CLpro (setting [9]), more than 10000 nM on HRV3C (setting [10]) and not below 10000 nM on human cathepsin L.
For the compound `CO[C@H](C(C)C)[C@H](NC(=O)C(F)(F)C(F)(F)F)C(=O)N1C[C@H]2[C@@H]([C@H]1C(=O)N[C@H](C#N)C[C@@H]1CCNC1=O)[C@H]1C=C[C@@H]2C1` [Compound 135], in data set [1] (setting [11]), the EC50 was less than 100 nM. The CC50 in the data set “in vitro [5]” was more than 1000 nM. The IC50 on SARS-Cov-2 3CLpro (setting [9]) was less than 20 nM; at HRV3C (setting [10]), more than 500 nM; at human cathepsin L it was not below 10000 nM.
On to `CC(C)(C)[C@H](NC(=O)C(F)(F)Cl)C(=O)N1C[C@@H]2[C@H]3C[C@@H]([C@@H]2[C@H]1C(=O)N[C@H](C#N)C[C@@H]1CCNC1=O)[C@H](F)C3` [Compound 134, (1S,3aR,4S,6R,7S,7aR)-2-((S)-2-(2-chloro-2,2-difluoroacetamido)-3,3-dimethylbutanoyl)-N-((S)-1-cyano-2-((S)-2-oxopyrrolidin-3-yl)ethyl)-6-fluorooctahydro-1H-4,7-methanoisoindole-1-carboxamide], for which the half-inhibitory concentration (IC50) was less than 20 nM at SARS-Cov-2 3CLpro (setting [9]), more than 500 nM on HRV3C (setting [10]) and not below 10000 nM against human cathepsin L. In addition, the EC50 in data set [4] (setting [12]) was less than 100 nM. In “in vitro [6]”, this compound had a CC50 of more than 100000 nM.
For `CN1CCN(C(=O)N[C@@H](Cc2ccccc2)C(=O)N[C@H](/C=C/S(=O)(=O)c2ccccc2)CCc2ccccc2)CC1` [Example K117777], the antiviral effect entry in the data set on SARS-CoV-2 (A549-ACE2 when TMPRSS2 was expressed (Steuten et al.)) is listed as “abolished”. The “inhibition of SARS-CoV-2” value in the data set with SARS-CoV-2 (VeroE6, A549-ACE2 and/or HeLa-ACE2 (Mellott et al.)) was “potent inhibition”. In addition, the “inhibitory effect on the 3CLpro” value at 3CLpro is “lacks an inhibitory effect”.
For `CC(C)(C)[C@H](NC(=O)c1ccccn1)C(=O)N1C[C@H]2[C@@H]([C@H]1C(=O)N[C@H](C#N)C[C@@H]1CCNC1=O)[C@H]1C=C[C@@H]2C1` [Example 5, (1R,2S,3S,6R,7S)—N-[(1S)-1-cyano-2-[(3S)-2-oxopyrrolidin-3-yl]ethyl]-4-[(2S)-3,3-dimethyl-2-(pyridin-2-ylformamido)butanoyl]-4-azatricyclo[5.2.1.0^{2,6}]dec-8-ene-3-carboxamide], the EC50 is 1000 to 10000 nM in data set [1] (setting [8]), 1000 to 10000 nM in data set [2] and 100 to 1000 nM in [4]. The figures for the CC50 (with Vero E6-eGFP cells; in data set [3]; in the data set on HeLa cells) were more than 50000 nM, more than 10000 nM and more than 100000 nM, respectively. In addition, the IC50 on SARS-Cov-2 3CLpro (setting [9]) was 200 to 2000 nM; on HRV3C (setting [10]), more than 10000 nM; against human cathepsin L it was not below 10000 nM.
For the compound `CC(C)(C)[C@H](NC(=O)C(F)(F)F)C(=O)N1C[C@@H]2[C@@H]3CC[C@@H](C3)[C@@H]2[C@H]1C(=O)N[C@H](C#N)CC1Cc2ccccc2NC1=O` (stereo partly drawn) [Example 31, (1S,3aR,4R,7S,7aS)—N-((1S)-1-cyano-2-(2-oxo-1,2,3,4-tetrahydroquinolin-3-yl)ethyl)-2-((S)-3,3-dimethyl-2-(2,2,2-trifluoroacetamido)butanoyl)octahydro-1H-4,7-methanoisoindole-1-carboxamide], the EC50 in data set [1] (setting [11]) was less than 100 nM; in data set [2], 100 to 1000 nM; in data set [4] (setting [12]), 100 to 1000 nM. The CC50 in “in vitro [5]” and in “in vitro [6]” was more than 10000 nM in each case. For the same compound, the values for the IC50 at SARS-Cov-2 3CLpro (setting [9]), at HRV3C (setting [10]) and against human cathepsin L were less than 20 nM, more than 10000 nM and not below 10000 nM, respectively.
